Experimental data published in patent US20250099515A1, “LACTOBACILLUS ACIDOPHILUS TO INCREASE AGMATINE PRODUCTION BY MICROBIOTA” (SOCIETE DES PRODUITS NESTLE S.A., priority 2021, published 2025).
Where “and” joins values, the source holds several entries; their conditions need not be identical. Equal values may be shown once. Read-outs that look alike come from different tables or passages of the source.

Columns and labels:
[1] = No observed effect level (max dose without toxicity); assay type: in vivo; conditions: [33]
[2] = cited from earlier work
[3] = rat, ten minutes after radiolabeled intravenous (IV) injection; cited from earlier work
[4] = human, putrescine in test meal; cited from earlier work
[5] = system: colonic microbiota; experiment: Prodigest short-term colonic incubations with fecal inocula of five donors; assay type: cell-based, human; conditions: FIG. 5
Experimental: Fecal material was collected from five healthy adult donors. Fecal suspensions were prepared and mixed with an internally optimized cryoprotectant. The obtained suspensions were aliquoted, flash frozen and then preserved at −80° C. (cryostock). Just before the experiment, fecal samples were defrosted and immediately added to the reactors. A short-term screening assay typically consists of a colonic incubation of a single dose of a test compound under conditions representative for the proximal large intestine, using bacterial inocula from selected donors as microbial sources. At the start of the short-term colonic incubations, test ingredients were added to a sugar-depleted nutritional medium containing basal nutrients of the colon. Because nutrients of this sugar-depleted nutritional medium will also be fermented by the colonic microbiota, a blank containing only the sugar-depleted nutritional medium (without product) was included for each donor. Finally, fecal inocula of five donors were added (healthy adult humans with no history of antibiotic use 6 months preceding the experiment). […] Reactors were incubated for 48 h at 37° C., under shaking (90 rpm) and anaerobic conditions. The incubations were performed in fully independent reactors with sufficiently high volume in order to not only ensure robust microbial fermentation, but also to allow the collection of multiple samples over time. Sample collection enables assessment of metabolite production and thus to understand the complex microbial interactions that are taking place. An assessment was made of the change in pH, and of gas, SCFA, ammonium and lactate production at the start of the incubation and after 6 h, 24 h and 48 h. Quantitative deep shotgun sequencing was performed at the start and after 24 h and 48 h of incubation. Targeted metabolic analysis of eight polyamines, an amino acid and a neurotransmitter was performed at the start of the incubation, and after 6 h, 24 h and 48 h. Targeted metabolic analysis: Eight different polyamines were targeted, more specifically putrescine, agmatine, acetyl-agmatine, omithine, spermidine, spermine, citrulline and 4-guanidinobutanoic acid. Additionally, samples were analyzed for amino acid arginine and neurotransmitter gamma-Aminobutyric acid (GABA).

[6] = target: imidazoline or α-2-adrenergic receptors; conditions: cited from earlier work
[7] = system: gut microbial polyamines, longevity; conditions: arginine intake from 0 to 9 mg/g body weight; abolished after antibiotics use; cited from earlier work
[8] = system: polyamines synthesis; conditions: mouse model of osteoporosis; cited from earlier work
[9] = system: autophagy; conditions: depending on organ/cell type; cited from earlier work
[10] = target: α2-Adrenoceptors; conditions: Bovine adrenal cortex; cited from earlier work
[11] = target: α2A-Adrenoceptors (Homo sapiens, UniProt P08913); conditions: Human recombinant receptor; cited from earlier work
[12] = target: α2B-Adrenoceptors (Homo sapiens, UniProt P18089); conditions: Human recombinant receptor; cited from earlier work
[13] = target: α2C-Adrenoceptors (Homo sapiens, UniProt P18825); conditions: Human recombinant receptor; cited from earlier work
[14] = target: I1-Imidazoline binding sites; conditions: Bovine ventrolateral medulla; cited from earlier work
[15] = target: I1-Imidazoline binding sites; conditions: Bovine adrenomedullary cell; cited from earlier work
[16] = target: I1-Imidazoline binding sites; conditions: Human platelet-purified plasma membranes; cited from earlier work
[17] = target: I1-Imidazoline binding sites; conditions: Rat stomach membranes; cited from earlier work
[18] = target: I2-Imidazoline binding sites; conditions: Rat aorta smooth muscle cells; cited from earlier work
[19] = target: I2-Imidazoline binding sites; conditions: Rat whole brain membranes; cited from earlier work
[20] = target: I2-Imidazoline binding sites; conditions: Rat stomach membranes; cited from earlier work
[21] = target: I2-Imidazoline binding sites; conditions: Bovine adrenal chromaffin cells; cited from earlier work
[22] = target: I2-Imidazoline binding sites; conditions: Bovine endothelial cells; cited from earlier work
[23] = target: I2-Imidazoline binding sites; conditions: Human platelet-purified internal membranes; cited from earlier work
[24] = target: I2-Imidazoline binding sites; conditions: Human atrial appendages; cited from earlier work
[25] = target: I2-Imidazoline binding sites; conditions: Chicken brain membranes; cited from earlier work
[26] = target: I2-Imidazoline binding sites; conditions: Frog whole brain membranes; cited from earlier work
[27] = target: I2-Imidazoline binding sites; conditions: Rabbit whole brain membranes; cited from earlier work
[28] = target: Presynaptic imidazoline receptor; conditions: Human atrial appendages; cited from earlier work
[29] = system: Presynaptic imidazoline receptor; conditions: Rabbit aorta; at 0.1 and 1 μM; cited from earlier work
[30] = target: NMDA receptor, polyamine binding site; conditions: Rat cerebral cortex; cited from earlier work
[31] = target: NMDA receptor, MK-801 binding site; conditions: Rat cerebral cortex; cited from earlier work
[32] = target: T1, NMDA receptor; conditions: Rat cerebral membrane; cited from earlier work
T1 construct: Ki; other: Rat cerebral membrane

[33] = target: NMDA receptor, NR1-ζ/NR2-ε1 (Mus musculus, UniProt P35436+P35438); conditions: Recombinant receptor; cited from earlier work
[34] = target: NMDA receptor, NR1-ζ/NR2-ε2 (Mus musculus, UniProt P35438+Q01097); conditions: Recombinant receptor; cited from earlier work
[35] = target: NMDA receptor, NR1-ζ/NR2-ε3 (Mus musculus, UniProt P35438+Q01098); conditions: Recombinant receptor; cited from earlier work
[36] = target: NMDA receptor, NR1-ζ/NR2-ε4 (Mus musculus, UniProt P35438+Q03391); conditions: Recombinant receptor; cited from earlier work
[37] = target: 5-HT3 receptor (Mus musculus, UniProt P23979); conditions: Mouse N1E-115 cells; cited from earlier work
[38] = target: σ2-Binding sites (Rattus norvegicus, UniProt Q5U3Y7); conditions: Rat stomach membranes; cited from earlier work
[39] = target: σ2-Binding sites (Mus musculus, UniProt Q8VD00); conditions: Mouse N1E-115 cells; cited from earlier work
[40] = target: Nicotinic acetylcholine receptors; conditions: Chick retina; cited from earlier work
[41] = target: α-2 adrenoreceptors; conditions: depending on organs/cell type; read-out: Affinity for α-2 adrenoreceptors (Ki); cited from earlier work
[42] = system: mouse kidney proximal tubule, Ras transformed NIH-3T3 fibroblast, mouse glomerular mesangial, human Schwann tumor, rat glomerular endothelial cells, human …; conditions: several ex-vivo and in-vitro cell assays; cited from earlier work
[43] = system: HTC rat hepatoma cells; conditions: cited from earlier work
[44] = system: ODC and SSAT in liver and kidney; conditions: 456.6 mg/kg i.p., suiss female mice; cited from earlier work

5-HT3 receptor, sequence (P23979 24-489): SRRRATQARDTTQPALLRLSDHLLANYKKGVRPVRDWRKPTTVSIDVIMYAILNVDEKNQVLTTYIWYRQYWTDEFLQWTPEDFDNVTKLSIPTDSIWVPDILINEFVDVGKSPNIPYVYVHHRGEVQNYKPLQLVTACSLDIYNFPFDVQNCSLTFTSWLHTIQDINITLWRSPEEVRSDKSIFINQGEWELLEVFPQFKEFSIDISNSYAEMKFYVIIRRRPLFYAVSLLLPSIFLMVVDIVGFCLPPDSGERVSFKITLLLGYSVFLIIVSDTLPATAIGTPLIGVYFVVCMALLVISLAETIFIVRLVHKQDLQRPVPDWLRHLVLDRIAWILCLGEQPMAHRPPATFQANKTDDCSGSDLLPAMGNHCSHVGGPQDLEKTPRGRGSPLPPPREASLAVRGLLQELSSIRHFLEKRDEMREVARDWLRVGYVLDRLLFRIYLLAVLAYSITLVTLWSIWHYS
σ2-Binding sites (Rattus norvegicus, UniProt Q5U3Y7), sequence (Q5U3Y7 whole entry): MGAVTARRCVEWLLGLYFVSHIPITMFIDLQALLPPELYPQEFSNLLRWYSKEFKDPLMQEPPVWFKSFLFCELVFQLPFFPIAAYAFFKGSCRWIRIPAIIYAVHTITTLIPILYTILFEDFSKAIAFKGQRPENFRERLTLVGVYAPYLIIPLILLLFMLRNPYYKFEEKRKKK
NMDA receptor, NR1-ζ/NR2-ε2, sequence (Q01097 27-1482, other chains not shown): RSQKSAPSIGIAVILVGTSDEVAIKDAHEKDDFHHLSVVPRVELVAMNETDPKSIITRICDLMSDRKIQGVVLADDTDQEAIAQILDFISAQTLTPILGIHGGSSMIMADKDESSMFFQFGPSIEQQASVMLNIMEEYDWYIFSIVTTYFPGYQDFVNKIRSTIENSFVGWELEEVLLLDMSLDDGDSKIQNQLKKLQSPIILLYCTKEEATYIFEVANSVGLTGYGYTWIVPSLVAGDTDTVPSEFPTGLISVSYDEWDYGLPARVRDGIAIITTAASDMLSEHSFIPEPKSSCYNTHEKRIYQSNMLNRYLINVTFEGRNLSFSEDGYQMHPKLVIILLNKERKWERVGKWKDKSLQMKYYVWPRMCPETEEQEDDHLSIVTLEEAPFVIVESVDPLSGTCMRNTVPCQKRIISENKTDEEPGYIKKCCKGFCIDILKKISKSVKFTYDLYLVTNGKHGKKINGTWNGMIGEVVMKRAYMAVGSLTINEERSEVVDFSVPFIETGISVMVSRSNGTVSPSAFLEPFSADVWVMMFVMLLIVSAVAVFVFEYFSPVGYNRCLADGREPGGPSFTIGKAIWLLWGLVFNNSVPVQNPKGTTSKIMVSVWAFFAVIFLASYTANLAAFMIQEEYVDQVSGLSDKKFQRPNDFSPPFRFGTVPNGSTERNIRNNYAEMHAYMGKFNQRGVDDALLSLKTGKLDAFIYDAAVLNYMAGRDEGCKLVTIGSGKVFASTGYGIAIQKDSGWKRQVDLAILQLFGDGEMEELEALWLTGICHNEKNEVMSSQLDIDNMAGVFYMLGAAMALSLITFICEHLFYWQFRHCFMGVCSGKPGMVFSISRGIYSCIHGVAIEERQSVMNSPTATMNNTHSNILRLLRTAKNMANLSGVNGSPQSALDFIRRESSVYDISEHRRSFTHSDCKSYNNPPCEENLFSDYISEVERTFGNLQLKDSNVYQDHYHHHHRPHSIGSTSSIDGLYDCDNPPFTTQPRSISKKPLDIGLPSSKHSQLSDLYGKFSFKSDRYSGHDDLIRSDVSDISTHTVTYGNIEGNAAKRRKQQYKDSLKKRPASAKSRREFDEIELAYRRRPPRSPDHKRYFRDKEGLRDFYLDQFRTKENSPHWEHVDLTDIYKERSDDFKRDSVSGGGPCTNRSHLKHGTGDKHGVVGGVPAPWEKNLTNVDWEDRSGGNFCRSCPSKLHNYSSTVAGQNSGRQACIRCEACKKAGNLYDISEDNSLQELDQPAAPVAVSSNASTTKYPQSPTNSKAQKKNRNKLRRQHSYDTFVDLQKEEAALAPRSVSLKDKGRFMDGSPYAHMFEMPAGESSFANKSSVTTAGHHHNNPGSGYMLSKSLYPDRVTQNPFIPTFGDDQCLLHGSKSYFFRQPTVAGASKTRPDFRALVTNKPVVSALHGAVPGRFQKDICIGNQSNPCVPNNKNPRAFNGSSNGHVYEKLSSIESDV
σ2-Binding sites (Mus musculus, UniProt Q8VD00), sequence (Q8VD00 whole entry): as the sequence (Q5U3Y7 whole entry) above, with V4L, T5A, M26L, L33V, F71L, V105A, I118L, I127V, N136S, F169Y counted along it
α2C-Adrenoceptors, sequence (P18825 whole entry): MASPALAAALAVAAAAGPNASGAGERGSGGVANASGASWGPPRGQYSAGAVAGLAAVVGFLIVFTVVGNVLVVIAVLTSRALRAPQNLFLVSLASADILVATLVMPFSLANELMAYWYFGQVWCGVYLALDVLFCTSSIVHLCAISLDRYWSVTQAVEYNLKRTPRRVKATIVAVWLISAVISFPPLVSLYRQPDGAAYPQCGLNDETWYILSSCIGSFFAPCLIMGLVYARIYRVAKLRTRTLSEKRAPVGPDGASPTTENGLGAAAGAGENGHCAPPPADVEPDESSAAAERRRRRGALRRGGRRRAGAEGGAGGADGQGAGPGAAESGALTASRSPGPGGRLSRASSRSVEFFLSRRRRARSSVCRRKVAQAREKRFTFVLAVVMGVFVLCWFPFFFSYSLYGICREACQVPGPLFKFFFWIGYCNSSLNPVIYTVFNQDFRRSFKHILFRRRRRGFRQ
NMDA receptor, NR1-ζ/NR2-ε4, sequence (Q03391 28-1323, other chains not shown): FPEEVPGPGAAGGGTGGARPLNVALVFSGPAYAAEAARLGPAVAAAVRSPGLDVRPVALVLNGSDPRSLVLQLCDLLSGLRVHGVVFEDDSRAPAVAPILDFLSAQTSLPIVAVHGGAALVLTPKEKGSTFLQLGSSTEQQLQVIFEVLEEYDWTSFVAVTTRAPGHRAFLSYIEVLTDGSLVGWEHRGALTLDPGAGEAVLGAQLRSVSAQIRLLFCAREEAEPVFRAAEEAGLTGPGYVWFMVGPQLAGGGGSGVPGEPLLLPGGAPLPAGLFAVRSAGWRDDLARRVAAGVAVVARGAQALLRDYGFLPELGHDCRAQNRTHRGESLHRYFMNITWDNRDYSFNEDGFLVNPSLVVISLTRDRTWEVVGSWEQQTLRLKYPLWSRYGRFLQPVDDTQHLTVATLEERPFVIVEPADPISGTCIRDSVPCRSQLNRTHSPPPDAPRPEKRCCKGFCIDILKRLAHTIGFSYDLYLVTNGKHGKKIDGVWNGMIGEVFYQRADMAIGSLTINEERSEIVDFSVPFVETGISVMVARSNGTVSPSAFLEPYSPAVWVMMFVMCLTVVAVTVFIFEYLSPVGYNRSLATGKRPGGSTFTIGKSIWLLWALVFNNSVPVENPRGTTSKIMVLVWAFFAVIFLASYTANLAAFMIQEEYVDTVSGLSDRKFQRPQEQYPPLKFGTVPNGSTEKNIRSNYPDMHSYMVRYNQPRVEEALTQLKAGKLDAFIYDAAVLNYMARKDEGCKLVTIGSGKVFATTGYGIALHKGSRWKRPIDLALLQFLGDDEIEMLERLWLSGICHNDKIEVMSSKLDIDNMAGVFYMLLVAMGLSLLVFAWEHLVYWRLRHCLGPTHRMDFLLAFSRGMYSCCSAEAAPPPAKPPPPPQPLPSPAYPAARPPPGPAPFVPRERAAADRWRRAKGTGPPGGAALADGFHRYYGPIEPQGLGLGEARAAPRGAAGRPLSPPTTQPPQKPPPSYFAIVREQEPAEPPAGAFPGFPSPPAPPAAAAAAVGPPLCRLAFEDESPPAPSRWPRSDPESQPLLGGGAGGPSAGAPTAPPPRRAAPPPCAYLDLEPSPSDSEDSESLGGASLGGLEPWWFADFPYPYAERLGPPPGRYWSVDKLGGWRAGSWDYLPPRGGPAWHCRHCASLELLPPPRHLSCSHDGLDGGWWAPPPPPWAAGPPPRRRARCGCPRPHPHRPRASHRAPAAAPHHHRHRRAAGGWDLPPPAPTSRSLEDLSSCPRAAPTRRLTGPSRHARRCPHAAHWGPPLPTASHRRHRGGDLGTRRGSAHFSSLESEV
α2A-Adrenoceptors, sequence (P08913 whole entry): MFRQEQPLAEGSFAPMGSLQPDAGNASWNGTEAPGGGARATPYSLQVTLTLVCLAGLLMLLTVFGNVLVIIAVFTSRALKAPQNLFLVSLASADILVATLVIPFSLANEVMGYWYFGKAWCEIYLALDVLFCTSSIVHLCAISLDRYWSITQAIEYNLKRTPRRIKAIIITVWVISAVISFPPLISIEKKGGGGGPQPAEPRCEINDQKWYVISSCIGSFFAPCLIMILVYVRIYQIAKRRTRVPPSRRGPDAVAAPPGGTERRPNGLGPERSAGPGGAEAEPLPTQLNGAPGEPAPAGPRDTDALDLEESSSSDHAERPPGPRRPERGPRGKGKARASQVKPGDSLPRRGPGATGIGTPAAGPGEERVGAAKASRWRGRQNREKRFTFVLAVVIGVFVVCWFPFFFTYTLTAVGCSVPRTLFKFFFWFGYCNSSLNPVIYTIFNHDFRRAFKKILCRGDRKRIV
α2B-Adrenoceptors, sequence (P18089 whole entry): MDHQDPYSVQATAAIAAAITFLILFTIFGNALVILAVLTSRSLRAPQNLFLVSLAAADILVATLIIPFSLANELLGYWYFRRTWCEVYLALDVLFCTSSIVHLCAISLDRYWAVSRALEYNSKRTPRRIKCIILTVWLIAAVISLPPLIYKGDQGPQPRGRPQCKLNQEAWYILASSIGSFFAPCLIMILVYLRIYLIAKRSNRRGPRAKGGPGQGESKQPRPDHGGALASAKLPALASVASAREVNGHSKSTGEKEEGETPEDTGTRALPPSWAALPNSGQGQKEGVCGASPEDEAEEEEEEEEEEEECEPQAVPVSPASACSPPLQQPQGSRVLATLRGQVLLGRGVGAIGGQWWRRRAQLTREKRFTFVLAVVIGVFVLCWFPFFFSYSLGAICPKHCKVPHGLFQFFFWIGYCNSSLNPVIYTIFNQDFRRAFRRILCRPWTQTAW

Question: For `NCCCCN` [Putrescine, putrescine], which “no observed effect level (max dose without toxicity), total amount in brackets” value [1] is on record?
Answer: Its value is “(~12 g)”.

Question: What about the “no observed effect level (max dose without toxicity)” value [2, 33] of the same compound?
Answer: Its value is 180 mg/kg body mg/kg body weight/day.

Question: And the plasma decrease [3]?
Answer: Its plasma decrease is 67%.

Question: And the recovered in blood [4]?
Answer: Its recovered in blood is “Up to 20%”.

Question: For `NCCCNCCCCNCCCN` [Spermine, spermine], which plasma decrease [3] is on record?
Answer: The plasma decrease was 30%.

Question: With `N=C(N)NCCC[C@H](N)C(=O)O` [Arginine, arginine] as the compound, how does the agmatine produced ([5]; stool sample of donor A) read?
Answer: The agmatine produced was “about 5 μM”.

Question: And the agmatine produced ([5]; stool sample of donor B)?
Answer: The agmatine produced was “about 3 μM”.

Question: And the agmatine produced ([5]; stool sample of donor C)?
Answer: Its agmatine produced is “did not produce agmatine”.

Question: What about the agmatine produced ([5]; stool sample of donor D) of the same compound?
Answer: The agmatine produced was “did not produce agmatine”.

Question: What about the agmatine produced ([5]; stool sample of donor E) of the same compound?
Answer: Its agmatine produced is “about 5 μM”.

Question: What about the Ki [6] of the same compound?
Answer: Its Ki is 5000 µM.

Question: What about the “effect on fecal concentration of putrescine and spermidine” value [7] of the same compound?
Answer: The value was “increased”.

Question: Which “effect on warm-induced bone benefits” value [8] does the source give for `CC(=O)NCC(=O)O.CC(=O)NCC(=O)O.N=C(N)c1ccc(N=NNc2ccc(C(=N)N)cc2)cc1` [diminazene aceturate] here?
Answer: The value was “limited the warm-induced beneficial effects”.

Question: Which results are given for `NCCCCNCCCN` [Spermidine, spermidine]?
Answer: no observed effect level (max dose without toxicity), total amount in brackets [1]: (~5.4 g); Dose required for cytoprotective effect/e.g. autophagy [9]: 10 to 100 µM; no observed effect level (max dose without toxicity) [2, 33]: 83 mg/kg body mg/kg body weight/day; plasma decrease [3]: 89%

Question: With `NCCCCN=C(N)N` [Agmatine, (4-aminobutyl) guanidine] as the compound, how does the Ki [10] read?
Answer: The Ki was 11 to 20 µM and 17 µM.

Question: What about the Ki [11] of the same compound?
Answer: The Ki was 47 µM.

Question: What about the Ki [12] of the same compound?
Answer: The Ki was 164 µM.

Question: What about the Ki [13] of the same compound?
Answer: The Ki was 26.3 µM.

Question: And the Ki [14]?
Answer: The Ki was 0.7 µM.

Question: And the Ki [15]?
Answer: Its Ki is 0.127 µM.

Question: And the Ki [16]?
Answer: Its Ki is 0.033 µM.

Question: What about the Ki [17] of the same compound?
Answer: Its Ki is 0.098 µM.

Question: And the Ki [18]?
Answer: The Ki was 0.24 µM.

Question: What about the Ki [19] of the same compound?
Answer: The Ki was 417 µM.

Question: What about the Ki [20] of the same compound?
Answer: Its Ki is 266 µM.

Question: What about the Ki [21] of the same compound?
Answer: The Ki was 6 µM.

Question: And the Ki [22]?
Answer: Its Ki is 0.24 µM.

Question: What about the Ki [23] of the same compound?
Answer: Its Ki is 74.4 µM.

Question: What about the Ki [24] of the same compound?
Answer: The Ki was greater than 100 µM.

Question: What about the Ki [25] of the same compound?
Answer: Its Ki is 0.63 µM.

Question: And the Ki [26]?
Answer: Its Ki is 7.5 µM.

Question: And the Ki [27]?
Answer: Its Ki is 856 µM.

Question: What about the Ki [28] of the same compound?
Answer: The Ki was greater than 300 µM.

Question: What about the Inhibition [29] of the same compound?
Answer: Its Inhibition is “Inhibition at 0.1 and 1 μM”.

Question: What about the Ki [30] of the same compound?
Answer: The Ki was 14.8 µM.

Question: And the Ki [31]?
Answer: Its Ki is 219 µM.

Question: What about the Ki [32] of the same compound?
Answer: The Ki was 50 µM.

Question: And the IC50 [33]?
Answer: The IC50 was 286 µM.

Question: What about the IC50 [34] of the same compound?
Answer: Its IC50 is 330 µM.

Question: And the IC50 [35]?
Answer: Its IC50 is 326 µM.

Question: What about the IC50 [36] of the same compound?
Answer: The IC50 was 289 µM.

Question: What about the IC50 [37] of the same compound?
Answer: The IC50 was 708 µM.

Question: What about the Ki [37] of the same compound?
Answer: Its Ki is greater than 1000 µM.

Question: And the Ki [38]?
Answer: Its Ki is 668 µM.

Question: And the IC50 [39]?
Answer: Its IC50 is greater than 1000 µM.

Question: What about the IC50 [40] of the same compound?
Answer: Its IC50 is greater than 1000 µM.

Question: And the Ki [41]?
Answer: The Ki was 0.8 to 164 µM.

Question: And the “no observed effect level (max dose without toxicity)” value ([2]; in vivo)?
Answer: Its value is 2.67 g daily.

Question: And the “level at which agmatine interferes with polyamine metabolism, nitric oxide synthase and promotes antiproliferative effects” value [42]?
Answer: The value was 1 mM.

Question: And the “level at which agmatine interferes with polyamine metabolism, nitric oxide synthase and promotes antiproliferative effects” value [43]?
Answer: Its value is 0.01 mM.

Question: What about the “effect on ODC and SSAT in liver and kidney” value [44] of the same compound?
Answer: Its value is “inhibition of ODC and activation of SSAT”.

Question: What about the “effect on epithelial cell proliferation in kidney renal tubule” value [44] of the same compound?
Answer: Its value is “partial reduction of epithelial cell proliferation”.
